Results reported in US20240158367A1, “TRICYCLIC COMPOUND AS HIF2-ALPHA INHIBITOR, PREPARATION METHOD THEREFOR AND APPLICATION THEREOF” (SHANGHAI JEMINCARE PHARMACEUTICALS CO., LTD, priority 2021, published 2024).

Tests used:
[1] = test system: VEGF expression in 786-O cells; assay: VEGF ELISA assay in 786-O cells; assay type: cell-based; details: about 48 hours incubation
Method: 100×DMSO stock solution dissolved with the drug was prepared in assay medium (RPMI-1640 containing 2% FBS; FBS: 10099141C, Gibco; RPMI-1640: 12440053, Gibco) to formulate a series of dilutions of 10×compounds. To a clear flat-bottom 96-well plate (3599, Corning) was added 20 μL of the 10×compound dilution. Then approximately 40,000 786-O cells (ATCC®CRL-1932™) in 180 μL of culture medium were seeded into the 96-well plate. The final concentration of DMSO (D2650, Sigma) in each well was 0.1%. After incubating in the incubator for about 48 hours, 100 μL of the upper medium from each well was pipetted and placed in a new 96-well plate (3799, Corning). An ELISA kit (DY293B, R&D Systems) was used. The concentration of VEGF was determined according to the OD value of each well at […] detected by a microplate reader. EC50 values were calculated by GraphPad Prism software using the dose-response-inhibition (four parameter) equation.

[2] = test system: HIF response element(HRE)-dependent luciferase in 786-O-HRE-Luc cells; assay: Luciferase assay in 786-O-HRE-Luc cells; assay type: cell-based; details: approximately 24 hours incubation
Method: 786-O-HRE-Luc cells were obtained by infecting 786-O (ATCC®CRL-1932™) cells purchased from ATCC with commercial lentivirus. Appropriate 786-O-HRE-Luc single cell clones were screened, expanded, and used for the subsequent luciferase assay. For the luciferase assay, 100×DMSO stock solution dissolved with the drug was prepared in assay medium (RPMI-1640 containing 2% FBS; FBS: 10099141C, Gibco; RPMI-1640: 12440053, Gibco) to formulate a series of dilutions of 10×compounds. To a clear flat-bottom 96-well plate (3599, Corning) was added 20 μL of the 10×compound dilution. Then approximately 100,000 786-O-HRE-Luc cells in 180 μL of culture medium were seeded into the 96-well plate. The final concentration of DMSO (D2650, Sigma) in each well was 0.1%. After approximately 24 hours of incubation in the incubator, luciferase activity was determined using the Dual-Luciferase Reporter Assay System (E1960, Promega) reagent following the manufacturer's recommended method. EC50 values were calculated by GraphPad Prism software using the dose-response-inhibition (four parameter) equation.

[3] = Pharmacokinetic test in SD rats by gavage
Method: animals: SD rats, male, 200 to 220 g, purchased from Shanghai Jiesijie Laboratory Animal Co., Ltd.
The SD rats in each test compound group (3 rats in each group) were fasted overnight and then intragastrically administered the compounds (PO, administration dosage of 10 mg/kg or 5 mg/kg, administration volume of 10 mL/kg), and given food 4 hours after administration.
Approximately 0.2 mL of blood was collected from the jugular vein before administration and 0.083 hours, 0.25 hours, 0.5 hours, 1 hour, 2 hours, 4 hours, 6 hours, 8 hours, and 24 hours after administration, anticoagulated with sodium heparin. Blood samples were placed on ice after collection, and plasma was separated by centrifugation (centrifugation conditions: 1500 g, 10 minutes). The collected plasma was stored at −40° C. to −20° C. before analysis.
LC-MS/MS was used to determine the content of the test compound in rat plasma after intragastric administration.

[4] = SD rats, male, PO 10 mg/kg, plasma
[5] = male, SD, rat, in vivo, po, 5 mg/kg

| Compound | EC50 [1] | EC50 [2] | further results |
| --- | --- | --- | --- |
| N#Cc1cc(F)cc(Oc2ccc3c4c2C(F)CC4(O)C(F)(F)S3(=N)=O)c1 (centres unmarked) [Compound 2] | – | 0.046 µM | – |
| N#Cc1cncc(Oc2ccc3c4c2[C@H](F)[C@@H](F)[C@@]4(O)C(F)(F)S3(=O)=O)c1 [Compound 3-P2] | 2.77 µM | 3.99 µM | – |
| N#Cc1cncc(Oc2ccc3c4c2[C@H](F)[C@H](F)[C@@]4(O)C(F)(F)S3(=O)=O)c1 [Compound 3-P4] | 4.92 µM | 6.41 µM | – |
| N#Cc1cc(F)cc(Oc2ccc3c4c2[C@H](F)[C@H](F)[C@@]4(O)C(F)(F)S3(=O)=O)c1 [Compound 4-P4] | 0.737 µM | 0.511 µM | – |
| CS(=O)(=O)c1ccc(Oc2cc(F)cc(C#N)c2)c2c1[C@H](O)C(F)(F)C2 [PT2385, reference compound] | – | – | AUC(0-inf) [3, 5]: 843 ng·h/mL; Cmax [3, 5]: 193 ng/mL |

More lines, main results first:

| EC50 [1] | EC50 [2] | Compound | further results |
| --- | --- | --- | --- |
| 0.115 µM | – | N=S1(=O)c2ccc(Oc3cc(F)cc(Cl)c3)c3c2C(O)(CC3F)C1(F)F (centres unmarked) [Compound 1] | – |
| 0.18 µM | 0.0677 µM | N#Cc1cncc(Oc2ccc3c4c2[C@@H](F)[C@H](F)[C@]4(O)C(F)(F)S3(=O)=O)c1 [Compound 3-P1] | – |
| 0.0309 µM | 0.0122 µM | N#Cc1cncc(Oc2ccc3c4c2[C@@H](F)[C@@H](F)[C@]4(O)C(F)(F)S3(=O)=O)c1 [Compound 3-P3] | Plasma concentration and area under the curve compared with comparative example PT2385 ([3]; SD rats, PO, 10 mg/kg vs PT2385 5 mg/kg): significantly improved plasma concentration and area under the curve; Area under the curve AUC0-∞ [3, 4]: 24806 ng·h/mL; Plasma concentration Cmax [3, 4]: 4646 ng/mL |
| 0.0405 µM | 0.0192 µM | N#Cc1cc(F)cc(Oc2ccc3c4c2[C@@H](F)[C@H](F)[C@]4(O)C(F)(F)S3(=O)=O)c1 [Compound 4-P1] | – |
| 0.0544 µM | 0.0485 µM | N#Cc1cc(F)cc(Oc2ccc3c4c2[C@H](F)[C@@H](F)[C@@]4(O)C(F)(F)S3(=O)=O)c1 [Compound 4-P2] | – |
| 0.0152 µM | 0.0061 µM | N#Cc1cc(F)cc(Oc2ccc3c4c2[C@@H](F)[C@@H](F)[C@]4(O)C(F)(F)S3(=O)=O)c1 [Compound 4-P3] | – |
